For assay [1], the target named is T1, purified wild type MGL (wt-MGLL 6H-11-313) (Homo sapiens, UniProt Q99685).
T1 construct: purified wild type MGL (wt-MGLL 6H-11-313)
T1 sequence (Q99685 1-303): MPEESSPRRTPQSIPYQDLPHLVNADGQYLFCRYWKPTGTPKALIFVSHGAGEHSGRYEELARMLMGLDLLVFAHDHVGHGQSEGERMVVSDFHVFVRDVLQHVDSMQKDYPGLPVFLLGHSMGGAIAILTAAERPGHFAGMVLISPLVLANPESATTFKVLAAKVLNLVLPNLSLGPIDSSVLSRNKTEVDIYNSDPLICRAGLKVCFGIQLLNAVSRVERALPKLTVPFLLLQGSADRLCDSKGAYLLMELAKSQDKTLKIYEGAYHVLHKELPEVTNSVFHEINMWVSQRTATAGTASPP
The assay is described as follows: MGL enzyme activity assay (4MU-B cleavage), wild type MGL. It counts as biochemical. Particulars: wild type MGL 5 nM, 4MU-B 10 μM, 37° C.; read-out: MGL wild type inh IC50. In outline:
(§1)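 Enzyme in 20 mM PIPES pH 7.0, 150 mM NaCl, 0.001% Tween 20 with 4MU-B at 10 μM final and MGL at 5 nM final; compounds 17 to 0.0003 μM final, enzyme added last. Fluorescence (ex 335/em 440 nm) followed at 37° C for 5 min; IC50 from fit of fractional activity versus inhibitor concentration.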

For assay [2], the system named is CFA-induced paw radiant heat hypersensitivity. Briefly: CFA-induced paw radiant heat hypersensitivity. The assay is classed as in vivo. The settings on record: rat, 30 mg/kg p.o., 20% HPβCD, last time point 300 min; for inhibition in vivo at 30 mg/kg: po, 5 h, group mean values, read-out: Method 1: peak % reversal; for Method 2: peak % reversal: individual animal values. The protocol: Each rat was placed in a test chamber on a warm glass surface and allowed to acclimate for approximately 10 min. A radiant thermal stimulus (beam of light) was focused through the glass onto the plantar surface of each hind paw in turn. The thermal stimulus was automatically shut off by a photoelectric relay when the paw was moved or when the cut-off time was reached (20 sec for radiant heat at ˜5 amps). An initial (baseline) response latency to the thermal stimulus was recorded for each animal prior to the injection of complete Freund's adjuvant (CFA). Twenty-four hours following intraplantar CFA injection, the response latency of the animal to the thermal stimulus was re-evaluated and compared to the animal's baseline response time. […] Immediately following the post-CFA latency assessment, the indicated test compound or vehicle was administered orally. Post-compound treatment withdrawal latency was assessed at fixed time intervals, typically 30, 60, 120, 180, and 300 min. • The percent reversal (% R) of hypersensitivity was calculated in one of two different ways: 1) using group mean values or 2) using individual animal values. More specifically: • Method 1. For all compounds, the % R of hypersensitivity was calculated using the mean value for groups of animals at each time point according to the following formula: % reversal=[(group treatment response−group CFA response)/(group baseline response−group CFA response)]×100 • Results are given for the maximum % reversal observed for each compound at any time point tested. • Method 2. For some compounds, the % R of hypersensitivity was calculated separately for each animal according to the following formula: % reversal=[(individual treatment response−individual CFA response)/(individual baseline response−individual CFA response)]×100. • Results are given as a mean of the maximum % reversal values calculated for each individual animal.

The target in assay [3] is T2, purified mutant MGL (mut-MGLL 11-313 L179S L186S) (Homo sapiens, UniProt Q99685, L169S/L176S).
T2 construct: purified mutant MGL (mut-MGLL 11-313 L179S L186S)
T2 sequence (Q99685 1-303 L169S/L176S): T1 sequence (Q99685 1-303) with L169S, L176S
Briefly: MGL enzyme activity assay (4MU-B cleavage), mutant MGL. It counts as biochemical. Particulars: mutant MGL 5 nM, 4MU-B 10 μM, 37° C.; read-out: MGL mutant inh IC50. The method, boiled down:
as §1

In assay [4] the test system is MGL (rat brain homogenate). Briefly: 2-AG accumulation assay in rat brain homogenate. Particulars: compound 1 μM, percent of vehicle 2-AG accumulation. It counts as biochemical. In outline:
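Rat brain homogenate was incubated with compound for 15 min at 37° C., after which CaCl2 was added to a final concentration of 10 mM and incubation continued for 15 min at 37° C. in 5 mL total. Reactions were stopped with 6 mL of 2:1 chloroform/methanol, and 2-AG accumulated in the organic phase was quantified by HPLC/MS.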

The test system of assay [5] is murine model of acute inflammation. The settings on record: Comelli et al., Brit J Pharmacol, 2007; cited from earlier work.

One may read the IC50 as the concentration at which inhibition is half-maximal.

Numbering of substitutions follows the chain as printed.

As for `O=C(c1ccc(-c2cccc(C(F)(F)F)c2)cc1)N1CC(N[C@H]2CCN(C(=O)c3ccccc3)C2)C1` [Cpd 16, (3S)-1-(Phenylcarbonyl)-N-(1-{[3′-(trifluoromethyl)biphenyl-4-yl]carbonyl}azetidin-3-yl)pyrrolidin-3-amine], the IC50 in assay [1] is 16.7 nM. Besides, in assay [2], the inhibition in vivo at 30 mg/kg amounted to 78% and the “Method 2: peak % reversal” value is recorded as 87.7%. The IC50 in assay [3] is below 5 nM. The “Rat Brain 2AG % VehCntrl (%) @1 μM” value in assay [4] turned out to be 220%.
For `Cc1c(C(=O)N2CC(N[C@H]3CCN(C(=O)c4ccccc4)C3)C2)sc2ccc(-c3ccc(C(F)(F)F)cc3)cc12` [Cpd 40, (3S)-N-[1-({3-Methyl-5-[4-(trifluoromethyl)phenyl]-1-benzothiophen-2-yl}carbonyl)azetidin-3-yl]-1-(phenylcarbonyl)pyrrolidin-3-amine], in that order: 16 nM, 15.9%, 17.3%, 18.9 nM and 1145%.
Consider `O=C(Nc1cccc(-c2ccccc2)c1)OC1CCCCC1` [URB602], for which the antinociceptive effect result in assay [5] is given as “showed an antinociceptive effect”.

The values above are taken from US8748417B2, “Amino-pyrrolidine-azetidine diamides as monoacylglycerol lipase inhibitors” (Janssen Pharmaceutica, NV, priority 2010, dated 2014).
